According to patent US8697877B2, “Oxyindole derivatives with motilin receptor agonistic activity” (RaQualia Pharma Inc., priority 2009, dated 2014):

The compounds below were run against T1, human motilin receptor (GPR38) (Homo sapiens, UniProt O43193) (assay: GPR38 (Motilin Receptor) Functional Assay, NFAT-beta-lactamase reporter in CHO-K1 cells). Settings: not given.
T1 construct: expressed in transfected cells; host or cells: CHO-K1
T1 sequence (O43193 whole entry): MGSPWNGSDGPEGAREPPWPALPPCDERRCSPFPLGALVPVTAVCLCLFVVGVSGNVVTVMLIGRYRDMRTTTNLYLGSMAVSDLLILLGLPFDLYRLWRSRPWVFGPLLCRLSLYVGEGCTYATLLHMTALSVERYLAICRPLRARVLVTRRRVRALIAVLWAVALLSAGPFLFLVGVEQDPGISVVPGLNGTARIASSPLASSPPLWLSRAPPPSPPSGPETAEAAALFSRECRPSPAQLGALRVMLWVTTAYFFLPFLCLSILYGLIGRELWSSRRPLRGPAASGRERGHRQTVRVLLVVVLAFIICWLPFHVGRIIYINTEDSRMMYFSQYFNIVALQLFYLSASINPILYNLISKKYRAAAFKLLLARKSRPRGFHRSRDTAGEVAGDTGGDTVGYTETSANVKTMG
Type: cell-based
Experimental: The potencies and efficacies of the compounds of this invention for GPR38 can be determined by reporter assay performed on the human cloned receptor as described herein.
GPR38 (Motilin Receptor) Functional Assay
A CHO-K1 cell line stably transfected NFAT-beta-lactamase reporter and human motilin receptor gene was used. The cells were cultured in culture medium (Dulbecco's modified eagle medium containing 10% fetal bovine serum, 1 mM sodium pyruvate, 0.1 mM MEM nonessential amino acids, 25 mM HEPES buffer, 50 units/mL penicillin, 50 microg/mL streptomycin, 100 microg/mL zeocin, and 500 microg/mL G418). The cells were harvested with 0.05% trypsin EDTA and centrifuged. The cell pellets were resuspended in the culture medium and plated into a black/clear bottom 384-well plate at a density of 8000 cells per well, then incubated at 37° C. with 5% CO2 for over night (about 20 hours). On the day of assay, the culture medium was aspirated and 20 microL of assay medium (Dulbecco's modified eagle medium containing 100 units/mL penicillin and 100 microg/mL streptomycin) was added to each well, then the cell plates were placed in incubator at 37° C. with 5% CO2 for 1.5 hours. Compounds were prepared in 100% DMSO and these were diluted to 5× of final concentration with assay buffer (Hanks balanced salt solution, 20 mM HEPES, and 0.1% BSA), then dispensed into 384-well plate (5 microL/well). After incubation at 37° C. with 5% CO2 for 4.5 hours, CCF4-AM loading solution (Invitrogen Corp.) was added to each well. After incubation for 2 hours at room temperature, fluorescence intensities were measured by using plate reader FDSS (Hamamatsu Photonics K. K.) with excitation 400 nm, emission 465 nm/540 nm. Agonistic activity (EC50) was calculated from the sigmoidal dose-response curve using GraphPad Prism software (GraphPad Software, Inc.).
`CN[C@@H]1CC[C@H](C(=O)N[C@@H](Cc2cccc(OC)c2)C(=O)N2CCC(N3C(=O)C(C)(C)c4ccccc43)CC2)C1` [Example 31, (1S,3R)-N-((S)-1-(4-(3,3-dimethyl-2-oxoindolin-1-yl)piperidin-1-yl)-3-(3-methoxyphenyl)-1-oxopropan-2-yl)-3-(methylamino)cyclopentane-carboxamide] gave an EC50 of no more than 10 nM.
For `CN[C@@H]1CC[C@H](C(=O)N[C@@H](COc2ccccc2)C(=O)N2CCC(N3C(=O)C(C)(C)c4ccccc43)CC2)C1` [Example 38, (1S,3R)-N-((S)-1-(4-(3,3-dimethyl-2-oxoindolin-1-yl)piperidin-1-yl)-1-oxo-3-phenoxypropan-2-yl)-3-(methyl-amino)cyclopentanecarboxamide], the EC50 was no more than 10 nM.
Compound `CN[C@@H]1CC[C@H](C(=O)N[C@@H](Cc2cccc(Cl)c2)C(=O)N2CCC(N3C(=O)C(C)(C)c4ccccc43)CC2)C1` [Example 29, (1S,3R)-N-((S)-3-(3-chlorophenyl)-1-(4-(3,3-dimethyl-2-oxoindolin-1-yl)piperidin-1-yl)-1-oxopropan-2-yl)-3-(methylamino)cyclopentane-carboxamide] has an EC50 of no more than 10 nM.
`CN(C)[C@H]1CCN(C(=O)N[C@@H](CCc2ccccc2)C(=O)N2CCC(N3C(=O)C(C)(C)c4ccccc43)CC2)C1` [Example 67, (S)—N—((S)-1-(4-(3,3-dimethyl-2-oxoindolin-1-yl)piperidin-1-yl)-1-oxo-4-phenylbutan-2-yl)-3-(dimethylamino)pyrrolidine-1-carboxamide] showed an EC50 of no more than 10 nM.
`CN[C@@H]1CC[C@H](C(=O)N[C@@H](Cc2c[nH]c3ccccc23)C(=O)N2CCC(N3C(=O)C(C)(C)c4ccccc43)CC2)C1` [Example 34, (1S,3R)-N-((S)-1-(4-(3,3-dimethyl-2-oxoindolin-1-yl)piperidin-1-yl)-3-(1H-indol-3-yl)-1-oxopropan-2-yl)-3-(methylamino)cyclopentane-carboxamide] gave an EC50 of no more than 10 nM.
`CN[C@@H]1CC[C@H](C(=O)N[C@H](CC(=O)N2CCC(N3C(=O)C(C)(C)c4ccccc43)CC2)Cc2ccccc2)C1` [Example 43, (1S,3R)-N-((S)-4-(4-(3,3-dimethyl-2-oxoindolin-1-yl)piperidin-1-yl)-4-oxo-1-phenylbutan-2-yl)-3-(methylamino) cyclopentanecarboxamide] was tested, and the EC50 was no more than 10 nM.
`CC1(NC(=O)N[C@@H](CCc2ccccc2)C(=O)N2CCC(N3C(=O)C(C)(C)c4cc(F)ccc43)CC2)CCNCC1` [Example 72] gave an EC50 of no more than 10 nM.
`CN[C@H]1CCN(C(=O)N[C@@H](CCc2ccccc2)C(=O)N2CCC(N3C(=O)C(C)(C)c4cc(F)ccc43)CC2)C1` [Example 70, (S)—N—((S)-1-(4-(5-fluoro-3,3-dimethyl-2-oxoindolin-1-yl)piperidin-1-yl)-1-oxo-4-phenylbutan-2-yl)-3-(methylamino)pyrrolidine-1-carboxamide] was tested, and the EC50 was no more than 10 nM.
In the case of `CC1(C)C(=O)N(C2CCN(C(=O)[C@H](CCc3ccccc3)NC(=O)C3(CN)CC3)CC2)c2ccccc21` [Example 7, (S)-1-(aminomethyl)-N-(1-(4-(3,3-dimethyl-2-oxoindolin-1-yl)piperidin-1-yl)-1-oxo-4-phenylbutan-2-yl)cyclopropanecarboxamide], the EC50 is reported as no more than 10 nM.
In the case of `CN(C1CC1)[C@H]1CCN(C(=O)N[C@@H](CCc2ccccc2)C(=O)N2CCC(N3C(=O)C(C)(C)c4ccccc43)CC2)C1` [Example 63, (S)-3-(cyclopropyl(methyl)amino)-N-((S)-1-(4-(3,3-dimethyl-2-oxo-indolin-1-yl)piperidin-1-yl)-1-oxo-4-phenylbutan-2-yl)pyrrolidine-1-carboxamide], the EC50 is reported as no more than 10 nM.
Compound `CC1(C)C(=O)N(C2CCN(C(=O)[C@H](CCc3ccccc3)NC(=O)C3CNC3)CC2)c2ccccc21` [Example 9, (S)-N-(1-(4-(3,3-dimethyl-2-oxoindolin-1-yl)piperidin-1-yl)-1-oxo-4-phenylbutan-2-yl)azetidine-3-carboxamide] has an EC50 of no more than 10 nM.
`CC1(C)C(=O)N(C2CCN(C(=O)[C@H](CCc3ccccc3)NC(=O)NCCN3CCCC3)CC2)c2ccccc21` [Example 64, (S)-1-(1-(4-(3,3-dimethyl-2-oxo-indolin-1-yl)piperidin-1-yl)-1-oxo-4-phenylbutan-2-yl)-3-(2-(pyrrolidin-1-yl)ethyl)urea] gave an EC50 of no more than 10 nM.
In the case of `CN[C@H]1CCN(C(=O)N[C@@H](CCc2ccccc2)C(=O)N2CCC(N3C(=O)C(C)(C)c4ccccc43)CC2)C1` [Example 47, (S)—N—((S)-1-(4-(3,3-dimethyl-2-oxoindolin-1-yl)piperidin-1-yl)-1-oxo-4-phenylbutan-2-yl)-3-(methylamino)pyrrolidine-1-carboxamide], the EC50 is reported as no more than 10 nM.
Compound `CN1CCC[C@H]1CNC(=O)N[C@@H](CCc1ccccc1)C(=O)N1CCC(N2C(=O)C(C)(C)c3ccccc32)CC1` [Example 68, 1-((S)-1-(4-(3,3-dimethyl-2-oxo-indolin-1-yl)piperidin-1-yl)-1-oxo-4-phenylbutan-2-yl)-3-(((S)-1-methylpyrrolidin-2-yl)methyl)urea] has an EC50 of no more than 10 nM.
For `CN[C@@H]1CC[C@H](C(=O)N[C@@H](Cc2ccc(OC)cc2)C(=O)N2CCC(N3C(=O)C(C)(C)c4ccccc43)CC2)C1` [Example 37, (1S,3R)-N-((S)-1-(4-(3,3-dimethyl-2-oxoindolin-1-yl)piperidin-1-yl)-3-(4-methoxyphenyl)-1-oxopropan-2-yl)-3-(methylamino)cyclopentanecarboxamide], the EC50 was no more than 10 nM.
Work on `CN[C@@H]1CC[C@H](C(=O)N[C@@H](COc2ccccc2Cl)C(=O)N2CCC(N3C(=O)C(C)(C)c4ccccc43)CC2)C1` [Example 39, (1S,3R)-N-((S)-3-(2-chlorophenoxy)-1-(4-(3,3-dimethyl-2-oxoindolin-1-yl)piperidin-1-yl)-1-oxopropan-2-yl)-3-(methylamino)cyclopentanecarboxamide] yielded an EC50 of no more than 10 nM.
For `CC1(C)C(=O)N(C2CCN(C(=O)[C@H](CCc3ccccc3)NC(=O)CN3CCCC3)CC2)c2ccccc21` [Example 17, (S)—N-(1-(4-(3,3-dimethyl-2-oxoindolin-1-yl)piperidin-1-yl)-1-oxo-4-phenylbutan-2-yl)-2-(pyrrolidin-1-yl)acetamide], the EC50 was no more than 10 nM.
With `CC1(C)C(=O)N(C2CCN(C(=O)[C@H](CCc3ccccc3)NC(=O)NC[C@@H]3CCCNC3)CC2)c2ccccc21` [Example 61, 1-((S)-1-(4-(3,3-dimethyl-2-oxo-indolin-1-yl)piperidin-1-yl)-1-oxo-4-phenylbutan-2-yl)-3-((R)-piperidin-3-ylmethyl)urea] the EC50 was no more than 10 nM.
`CN1CCC[C@@H](C(=O)N[C@@H](CCc2ccccc2)C(=O)N2CCC(N3C(=O)C(C)(C)c4ccccc43)CC2)C1` [Example 20, (R)—N—((S)-1-(4-(3,3-dimethyl-2-oxoindolin-1-yl)piperidin-1-yl)-1-oxo-4-phenylbutan-2-yl)-1-methylpiperidine-3-carboxamide] showed an EC50 of no more than 10 nM.
Compound `CN(C)CCNC(=O)N[C@@H](CCc1ccccc1)C(=O)N1CCC(N2C(=O)C(C)(C)c3ccccc32)CC1` [Example 65, (S)-1-(1-(4-(3,3-dimethyl-2-oxo-indolin-1-yl)piperidin-1-yl)-1-oxo-4-phenylbutan-2-yl)-3-(2-(dimethyl-amino)ethyl)urea] has an EC50 of no more than 10 nM.

Same assay, conditions: ED50 (nM), Table 15; functional activity toward GPR38 (motilin receptor), (S) versus (R) amino acid linker
`CN[C@H]1CCN(C(=O)N[C@@H](CCc2ccccc2)C(=O)N2CCC(N3C(=O)C(C)(C)c4ccccc43)CC2)C1` [Example 47, (S)—N—((S)-1-(4-(3,3-dimethyl-2-oxoindolin-1-yl)piperidin-1-yl)-1-oxo-4-phenylbutan-2-yl)-3-(methylamino)pyrrolidine-1-carboxamide] was tested, and the EC50 was 0.98 nM.
Work on `CN[C@H]1CCN(C(=O)N[C@H](CCc2ccccc2)C(=O)N2CCC(N3C(=O)C(C)(C)c4ccccc43)CC2)C1` [Example 99, (S)—N—((R)-1-(4-(3,3-dimethyl-2-oxoindolin-1-yl)piperidin-1-yl)-1-oxo-4-phenylbutan-2-yl)-3-(methylamino)pyrrolidine-1-carboxamide] yielded an EC50 of 488 nM.
